Data set [1] can be described thus: Water activity (Pawkit water activity meter). In kind it is physicochemical. The following applies: sorbitol 9.9 molal, fructose 16.6 molal, sucrose 5.3 molal. How it is done: A Pawkit water activity meter uses a dielectric humidity sensor to measure the water activity (aw) of a sample. The unit is accurate to ±0.02 aw. The water activity meter was calibrated, using a 6.0 molal NaCl solution, before each new set of measurements was taken. Each sample was measured in duplicate.

Data set [2] is described as follows: Viscosity measurements (Bohlin Rheometer), screening and optimization phases. Type of data set: physicochemical. Particulars: sorbitol 9.9 molal, fructose 16.6 molal, sucrose 5.3 molal (highest concentrations studied). The procedure:
2. Viscosity Measurements
In the screening and optimization phases, described below, viscosity measurements were made using a Bohlin Rheometer, under the following conditions: a 10.0 pascal sheer stress and a continuous, single sweep type at a temperature of 25.0° C.

The conditions of data set [3]: cited from earlier work.

“And” between values parts separate entries of the source, which are not always exact repeats. Equal values may be shown once. Read-outs that look alike come from different tables or passages of the source. Some results are limits rather than exact numbers.

The values below come from US20040191326A1, “Taste-masking vehicle for coated oxazolidinone particles” (priority 2003, published 2004).

`O=C(CO)[C@@H](O)[C@H](O)[C@H](O)CO` [fructose]: the “Water activity of solution” value in data set [1] is on record as 0.70. Also, the Viscosity of solution in data set [2] was 429 cps and 439 cps.

Regarding `OC[C@@H](O)[C@@H](O)[C@H](O)[C@@H](O)CO` [sorbitol], the “Water activity of solution” value in data set [1] worked out at 0.81. This compound also displayed a Viscosity of solution in data set [2] of 48 cps. Besides, the entries for the “Dosage with laxative effect” value in data set [3] (adults) and in data set [3] (children) were not below 20 grams/day and “greater than 0.5 g/kg body weight”, respectively.

Consider `OC[C@H]1O[C@@](CO)(O[C@H]2O[C@H](CO)[C@@H](O)[C@H](O)[C@H]2O)[C@@H](O)[C@@H]1O` [sucrose], for which the “Water activity of solution” value in data set [1] came to 0.86. In data set [2], this compound had a Viscosity of solution of 119 cps.
